Values belong to the molecule of their own block, whether it stands above or below them.
Columns and labels:
VEGFR2 = VEGFR2 (Homo sapiens, UniProt P35968); assay: Z′-LYTE kinase inhibition assay
FGFR1 = FGFR1 (Homo sapiens, UniProt P11362); assay: Z′-LYTE kinase inhibition assay
PDGFRβ = PDGFRβ (Homo sapiens, UniProt P09619); assay: Z′-LYTE kinase inhibition assay
HUVECs [1] = assay: VEGF-induced HUVECs proliferation; assay type: cell-based; conditions: Homo sapiens, HUVEC, 72 h, read-out: IC50 HUVECs
HBVPs = assay: PDGF-BB-induced HBVPs proliferation; assay type: cell-based; conditions: Homo sapiens, 48 h, read-out: IC50 HBVPs
HUVECs [2] = assay: HUVEC tube formation assay; assay type: cell-based, human; conditions: induced by 50 ng/mL hVEGF-165; 0.5 and 5.0 μmol/L; vs. hVEGF-165 control, P < 0.01
HUVECs [3] = assay: Transwell invasion assay; assay type: cell-based, human; conditions: driven by 50 ng/mL hVEGF-165; dose-dependent; 0.5 μmol/L P < 0.01; 5.0 and 50.0 μmol/L P < 0.001
[4] = test system: phosphorylation of VEGFR2 and ERK; assay: Western blot, VEGF/VEGFR2/ERK signalling in HUVECs; assay type: cell-based, human; conditions: 5.0 μmol/L; induced by 50 ng/mL hVEGF 165 in HUVECs; P < 0.01
[5] = test system: phosphorylation of PDGFRβ and ERK; assay: Western blot, PDGF/PDGFRβ/ERK signalling in HBVPs; assay type: cell-based, human; conditions: 0.5 and 5.0 μmol/L; induced by 50 ng/mL PDGF-BB in HBVPs
[6] = test system: phosphorylation of FGFR1‒4 and ERK; assay: Western blot, FGF/FGFRs/ERK signalling in HUVECs; assay type: cell-based, human; conditions: 5.0 μmol/L; induced by 50 ng/mL bFGF in HUVECs; P < 0.01
[7] = test system: CT26 colon adenocarcinoma cells; assay: Tumor xenograft model in transgenic zebrafish; assay type: in vivo; conditions: 0.5 and 2.0 μmol/L in fish water, 7 days
[8] = test system: A549 lung cancer xenograft; assay: A549 lung cancer subcutaneous xenograft model; assay type: in vivo, Balb/c nude mice; conditions: for T/C / TGI: Day 21; for Tumor volume at Day 21 / area of CD31 (tumor micro-vessel density, IHC): mean ± SEM; for area of CD31 (tumor micro-vessel density, IHC): n = 3, control 3.38 ± 0.49
[9] = test system: NCI-H520 lung cancer xenograft; assay: NCI-H520 lung cancer subcutaneous xenograft model; assay type: in vivo, Balb/c nude mice; conditions: for T/C / TGI: Day 21; for Tumor volume at Day 21 / area of CD31 (tumor micro-vessel density, IHC): mean ± SEM; for area of CD31 (tumor micro-vessel density, IHC): n = 3, control 4.96 ± 0.62
[10] = test system: patient-derived tumor (LI-03-0020) xenograft; assay: Liver cancer patient-derived tumor xenograft; assay type: in vivo, Balb/c nude mice
[11] = Pharmacokinetic study in rats; assay type: in vivo; conditions: both, Sprague-Dawley, rat, plasma
[12] = Pharmacokinetic study in beagles; assay type: in vivo; conditions: both, beagle, dog, plasma
[13] = H&E staining of vital organs of treated mice; assay type: in vivo, nude mice; conditions: 100 and 200 mg/kg, p.o., QD × 3 weeks
HUVECs [14] = conditions: 5.0 μmol/L (P < 0.05), 50.0 μmol/L (P < 0.001) vs. hVEGF-165 treated control
VEGFR3 = VEGFR3 (Homo sapiens, UniProt P35916); assay: Z′-LYTE kinase inhibition assay
FGFR2 = FGFR2 (Homo sapiens, UniProt P21802); assay: Z′-LYTE kinase inhibition assay
CAMK2α = CAMK2α (Homo sapiens, UniProt Q9UQM7); assay: Z′-LYTE kinase inhibition assay
Chain of CAMK2α (Q9UQM7 whole entry): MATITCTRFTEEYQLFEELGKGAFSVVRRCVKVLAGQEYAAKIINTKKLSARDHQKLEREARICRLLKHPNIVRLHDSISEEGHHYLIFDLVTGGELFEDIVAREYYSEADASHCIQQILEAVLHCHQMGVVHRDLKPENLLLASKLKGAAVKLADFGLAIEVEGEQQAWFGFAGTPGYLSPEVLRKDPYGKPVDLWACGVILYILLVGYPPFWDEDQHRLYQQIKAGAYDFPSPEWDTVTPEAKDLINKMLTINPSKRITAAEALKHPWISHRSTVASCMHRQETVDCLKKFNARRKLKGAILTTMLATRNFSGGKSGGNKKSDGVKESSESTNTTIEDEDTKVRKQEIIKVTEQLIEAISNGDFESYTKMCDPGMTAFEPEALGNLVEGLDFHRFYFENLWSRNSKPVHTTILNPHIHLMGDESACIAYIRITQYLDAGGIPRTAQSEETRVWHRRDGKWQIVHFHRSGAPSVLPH

CDK2 = CDK2 (Homo sapiens, UniProt P24941); assay: Z′-LYTE kinase inhibition assay
CHK1 = CHK1 (Homo sapiens, UniProt O14757); assay: Z′-LYTE kinase inhibition assay
Chain of CHK1 (O14757 whole entry): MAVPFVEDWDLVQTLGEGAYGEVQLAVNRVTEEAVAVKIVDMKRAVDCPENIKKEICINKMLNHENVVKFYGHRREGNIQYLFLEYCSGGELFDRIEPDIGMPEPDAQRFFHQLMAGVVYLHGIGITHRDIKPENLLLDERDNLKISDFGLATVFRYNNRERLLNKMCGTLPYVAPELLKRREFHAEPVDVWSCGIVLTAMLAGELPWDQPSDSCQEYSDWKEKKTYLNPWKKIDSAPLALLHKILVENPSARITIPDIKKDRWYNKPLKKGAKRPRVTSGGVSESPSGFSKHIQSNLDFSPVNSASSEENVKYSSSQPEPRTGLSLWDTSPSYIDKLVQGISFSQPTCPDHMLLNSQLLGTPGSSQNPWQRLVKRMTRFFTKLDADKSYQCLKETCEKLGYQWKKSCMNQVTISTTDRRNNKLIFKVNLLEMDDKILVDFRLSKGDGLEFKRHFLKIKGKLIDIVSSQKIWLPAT

CK1α = CK1α (Homo sapiens, UniProt P48729); assay: Z′-LYTE kinase inhibition assay
Chain of CK1α (P48729 whole entry): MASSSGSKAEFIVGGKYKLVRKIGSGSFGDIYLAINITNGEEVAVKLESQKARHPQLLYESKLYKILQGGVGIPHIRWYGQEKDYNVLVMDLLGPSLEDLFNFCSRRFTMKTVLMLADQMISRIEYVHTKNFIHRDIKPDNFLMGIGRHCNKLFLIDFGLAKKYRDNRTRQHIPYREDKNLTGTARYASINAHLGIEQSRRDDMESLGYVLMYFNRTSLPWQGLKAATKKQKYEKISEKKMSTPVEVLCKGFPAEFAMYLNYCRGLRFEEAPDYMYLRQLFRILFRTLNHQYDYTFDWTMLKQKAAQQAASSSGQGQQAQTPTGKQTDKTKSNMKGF

DYRK3 = DYRK3 (Homo sapiens, UniProt O43781); assay: Z′-LYTE kinase inhibition assay
EphA2 = EphA2 (Homo sapiens, UniProt P29317); assay: Z′-LYTE kinase inhibition assay
GSK3β = GSK3β (Homo sapiens, UniProt P49841); assay: Z′-LYTE kinase inhibition assay
MAP4K4 = MAP4K4 (Homo sapiens, UniProt O95819); assay: Z′-LYTE kinase inhibition assay
Chain of MAP4K4 (O95819 whole entry): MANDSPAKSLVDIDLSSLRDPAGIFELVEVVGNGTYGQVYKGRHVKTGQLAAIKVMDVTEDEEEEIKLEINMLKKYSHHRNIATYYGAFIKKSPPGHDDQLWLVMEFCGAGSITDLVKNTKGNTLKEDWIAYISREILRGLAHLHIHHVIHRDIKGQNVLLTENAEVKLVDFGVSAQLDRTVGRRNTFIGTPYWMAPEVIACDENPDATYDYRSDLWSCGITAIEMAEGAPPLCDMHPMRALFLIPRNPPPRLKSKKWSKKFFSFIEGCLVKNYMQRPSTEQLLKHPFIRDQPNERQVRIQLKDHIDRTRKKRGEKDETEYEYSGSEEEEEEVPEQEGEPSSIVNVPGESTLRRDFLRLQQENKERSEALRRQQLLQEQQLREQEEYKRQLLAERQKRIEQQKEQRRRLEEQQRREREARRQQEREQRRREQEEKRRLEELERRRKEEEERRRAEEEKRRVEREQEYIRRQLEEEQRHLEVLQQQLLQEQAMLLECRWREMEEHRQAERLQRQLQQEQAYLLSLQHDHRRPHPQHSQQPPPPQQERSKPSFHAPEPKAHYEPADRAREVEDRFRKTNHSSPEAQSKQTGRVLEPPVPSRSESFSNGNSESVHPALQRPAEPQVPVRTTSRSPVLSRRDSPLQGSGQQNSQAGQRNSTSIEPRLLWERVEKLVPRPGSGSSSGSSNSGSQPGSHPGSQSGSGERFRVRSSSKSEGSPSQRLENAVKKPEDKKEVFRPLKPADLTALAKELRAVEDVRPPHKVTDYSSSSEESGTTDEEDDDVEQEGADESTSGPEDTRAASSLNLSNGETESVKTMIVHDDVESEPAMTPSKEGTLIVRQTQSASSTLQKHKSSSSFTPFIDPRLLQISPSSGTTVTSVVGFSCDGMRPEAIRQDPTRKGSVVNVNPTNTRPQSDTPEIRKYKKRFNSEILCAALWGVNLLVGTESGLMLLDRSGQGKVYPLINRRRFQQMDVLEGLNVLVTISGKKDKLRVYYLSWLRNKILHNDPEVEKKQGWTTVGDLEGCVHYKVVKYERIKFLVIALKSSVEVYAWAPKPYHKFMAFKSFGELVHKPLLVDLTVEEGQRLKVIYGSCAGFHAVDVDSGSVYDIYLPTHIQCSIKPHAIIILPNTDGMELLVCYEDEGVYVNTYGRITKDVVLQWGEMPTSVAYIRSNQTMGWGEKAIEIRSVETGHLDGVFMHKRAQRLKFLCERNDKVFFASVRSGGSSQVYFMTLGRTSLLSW

JAK2 = JAK2 (Homo sapiens, UniProt O60674); assay: Z′-LYTE kinase inhibition assay
Chain of JAK2 (O60674 whole entry): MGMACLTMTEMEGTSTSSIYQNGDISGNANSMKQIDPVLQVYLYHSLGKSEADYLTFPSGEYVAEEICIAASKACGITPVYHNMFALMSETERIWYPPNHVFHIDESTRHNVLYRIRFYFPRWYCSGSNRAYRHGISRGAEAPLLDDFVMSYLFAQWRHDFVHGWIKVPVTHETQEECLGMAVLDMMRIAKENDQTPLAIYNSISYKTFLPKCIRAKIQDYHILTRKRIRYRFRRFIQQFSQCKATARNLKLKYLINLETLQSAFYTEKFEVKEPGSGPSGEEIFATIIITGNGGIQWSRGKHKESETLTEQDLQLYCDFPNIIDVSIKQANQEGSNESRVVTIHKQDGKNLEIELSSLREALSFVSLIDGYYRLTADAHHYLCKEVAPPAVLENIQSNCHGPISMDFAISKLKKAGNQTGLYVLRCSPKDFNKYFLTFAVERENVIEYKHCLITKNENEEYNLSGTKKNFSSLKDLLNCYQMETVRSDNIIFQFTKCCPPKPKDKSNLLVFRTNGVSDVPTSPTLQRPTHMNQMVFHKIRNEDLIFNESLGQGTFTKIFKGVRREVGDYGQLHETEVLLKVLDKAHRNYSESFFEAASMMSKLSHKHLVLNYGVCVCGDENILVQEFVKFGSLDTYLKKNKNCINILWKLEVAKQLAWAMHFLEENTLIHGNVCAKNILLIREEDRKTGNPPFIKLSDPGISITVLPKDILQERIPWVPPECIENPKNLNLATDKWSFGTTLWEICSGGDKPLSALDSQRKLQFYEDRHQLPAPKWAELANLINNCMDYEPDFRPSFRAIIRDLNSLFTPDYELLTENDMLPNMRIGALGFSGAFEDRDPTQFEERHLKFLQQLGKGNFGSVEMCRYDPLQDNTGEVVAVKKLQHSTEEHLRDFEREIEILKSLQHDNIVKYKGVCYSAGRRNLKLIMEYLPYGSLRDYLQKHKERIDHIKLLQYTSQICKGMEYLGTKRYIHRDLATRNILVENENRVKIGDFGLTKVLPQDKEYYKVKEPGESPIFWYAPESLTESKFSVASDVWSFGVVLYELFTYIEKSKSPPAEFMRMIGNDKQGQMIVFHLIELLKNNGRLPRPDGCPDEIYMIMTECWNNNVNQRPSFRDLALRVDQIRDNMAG

JNK1 = JNK1 (Homo sapiens, UniProt P45983); assay: Z′-LYTE kinase inhibition assay
Chain of JNK1 (P45983 whole entry): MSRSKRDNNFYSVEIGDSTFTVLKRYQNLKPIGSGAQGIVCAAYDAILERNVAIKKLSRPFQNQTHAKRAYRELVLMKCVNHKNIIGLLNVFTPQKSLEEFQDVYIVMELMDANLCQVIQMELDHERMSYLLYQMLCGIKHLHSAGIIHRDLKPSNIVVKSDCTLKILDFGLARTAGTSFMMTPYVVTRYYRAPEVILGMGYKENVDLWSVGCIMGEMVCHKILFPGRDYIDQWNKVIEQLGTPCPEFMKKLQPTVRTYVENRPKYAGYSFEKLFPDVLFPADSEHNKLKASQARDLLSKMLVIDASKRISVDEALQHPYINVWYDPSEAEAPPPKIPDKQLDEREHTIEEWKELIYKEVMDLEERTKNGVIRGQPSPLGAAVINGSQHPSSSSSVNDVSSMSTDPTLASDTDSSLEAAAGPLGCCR

MAPKAPK2 = MAPKAPK2 (Homo sapiens, UniProt P49137); assay: Z′-LYTE kinase inhibition assay
Chain of MAPKAPK2 (P49137 whole entry): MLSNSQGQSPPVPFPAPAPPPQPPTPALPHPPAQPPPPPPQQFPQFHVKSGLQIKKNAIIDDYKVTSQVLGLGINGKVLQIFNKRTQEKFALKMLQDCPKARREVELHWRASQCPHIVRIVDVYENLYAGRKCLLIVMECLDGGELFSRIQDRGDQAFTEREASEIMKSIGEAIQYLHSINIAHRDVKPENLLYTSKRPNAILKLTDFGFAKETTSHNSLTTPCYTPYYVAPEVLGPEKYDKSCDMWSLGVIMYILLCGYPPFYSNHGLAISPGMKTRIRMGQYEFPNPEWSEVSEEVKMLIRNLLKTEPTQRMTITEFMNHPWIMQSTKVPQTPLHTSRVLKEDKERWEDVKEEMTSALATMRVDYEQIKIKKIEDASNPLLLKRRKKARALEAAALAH

MST4 = MST4 (Homo sapiens, UniProt Q9P289); assay: Z′-LYTE kinase inhibition assay
p38α = p38α (Homo sapiens, UniProt Q16539); assay: Z′-LYTE kinase inhibition assay
Chain of p38α (Q16539 whole entry): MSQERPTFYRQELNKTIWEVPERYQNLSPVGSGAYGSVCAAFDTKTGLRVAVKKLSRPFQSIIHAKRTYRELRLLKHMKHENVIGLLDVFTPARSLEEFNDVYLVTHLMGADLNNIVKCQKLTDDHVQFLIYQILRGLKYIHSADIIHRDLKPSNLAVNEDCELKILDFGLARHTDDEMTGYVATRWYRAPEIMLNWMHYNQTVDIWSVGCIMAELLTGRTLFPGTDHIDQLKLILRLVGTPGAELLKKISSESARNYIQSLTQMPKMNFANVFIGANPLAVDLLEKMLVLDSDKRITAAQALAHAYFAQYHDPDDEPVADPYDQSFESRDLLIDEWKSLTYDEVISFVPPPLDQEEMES

PDK1 = PDK1 (Homo sapiens, UniProt O15530); assay: Z′-LYTE kinase inhibition assay
PKA = PKA (Homo sapiens, UniProt P17612); assay: Z′-LYTE kinase inhibition assay
SRC = SRC (Homo sapiens, UniProt P12931); assay: Z′-LYTE kinase inhibition assay
TAOK2 = TAOK2 (Homo sapiens, UniProt Q9UL54); assay: Z′-LYTE kinase inhibition assay
[15] = liver cancer PDX model, 200 mg/kg oral QD, Day 21

- IC50 (VEGFR2): 0.227 µM
- IC50 (FGFR1): 0.777 µM
- IC50 (PDGFRβ): 0.41 µM
Structure (SMILES): O=C1NCOc2cc3nccc(Oc4ccc(NC(=S)NC5CC5)c(Cl)c4)c3cc21 [B3]

- AUC(0-inf) ([11]; iv, 3 mg/kg): 35.2 ± 8.3 µM·h
- AUC(0-t) ([11]; iv, 3 mg/kg): 35 ± 8.2 µM·h
- Cmax ([11]; iv, 3 mg/kg): 40.4 ± 3 µM
- Vd ([11]; iv, 3 mg/kg): 0.26 ± 0.05 L/kg
- clearance ([11]; iv, 3 mg/kg): 0.194 ± 0.0486 L/h/kg
- half-life ([11]; iv, 3 mg/kg): 1.18 ± 0.18 h
- AUC(0-inf) ([11]; po, 15 mg/kg): 77.7 ± 39.6 µM·h
- AUC(0-t) ([11]; po, 15 mg/kg): 74.6 ± 36.3 µM·h
- Cmax ([11]; po, 15 mg/kg): 26 ± 13.3 µM
- Tmax ([11]; po, 15 mg/kg): 0.58 ± 0.2 h
- bioavailability ([11]; po, 15 mg/kg): 42%
- half-life ([11]; po, 15 mg/kg): 2.21 ± 0.39 h
- AUC(0-inf) ([11]; po, 50 mg/kg): 110 ± 84.9 µM·h
- AUC(0-t) ([11]; po, 50 mg/kg): 110 ± 84.9 µM·h
- Cmax ([11]; po, 50 mg/kg): 32.3 ± 11.3 µM
- Tmax ([11]; po, 50 mg/kg): 0.54 ± 0.25 h
- bioavailability ([11]; po, 50 mg/kg): 18.7%
- half-life ([11]; po, 50 mg/kg): 2 ± 0.55 h
- AUC(0-inf) ([11]; po, 50 mg/kg/day): 151 ± 63.5 µM·h
- AUC(0-t) ([11]; po, 50 mg/kg/day): 160 ± 60.3 µM·h
- Cmax at 7 days ([11]; po, 50 mg/kg/day): 46.5 ± 13.9 µM
- Tmax at 7 days ([11]; po, 50 mg/kg/day): 1.42 ± 0.67 h
- half-life at 7 days ([11]; po, 50 mg/kg/day): 2.17 ± 0.55 h
- AUC(0-inf) ([11]; po, 150 mg/kg): 233 ± 158 µM·h
- AUC(0-t) ([11]; po, 150 mg/kg): 232 ± 158 µM·h
- Cmax ([11]; po, 150 mg/kg): 48.7 ± 9.5 µM
- Tmax ([11]; po, 150 mg/kg): 1.58 ± 2.26 h
- bioavailability ([11]; po, 150 mg/kg): 13%
- half-life ([11]; po, 150 mg/kg): 2.54 ± 0.8 h
- AUC(0-inf) ([12]; iv, 2 mg/kg): 5.13 ± 0.9 µM·h
- AUC(0-t) ([12]; iv, 2 mg/kg): 5.1 ± 0.9 µM·h
- Cmax ([12]; iv, 2 mg/kg): 4.36 ± 0.96 µM
- Vd ([12]; iv, 2 mg/kg): 1.45 ± 0.33 L/kg
- clearance ([12]; iv, 2 mg/kg): 0.87 ± 0.164 L/h/kg
- half-life ([12]; iv, 2 mg/kg): 4.91 ± 2.18 h
- AUC(0-inf) ([12]; po, 10 mg/kg): 20.2 ± 20.2 µM·h
- AUC(0-t) ([12]; po, 10 mg/kg): 19.6 ± 20.2 µM·h
- Cmax ([12]; po, 10 mg/kg): 6.28 ± 6.57 µM
- Tmax ([12]; po, 10 mg/kg): 1.25 ± 0.612 h
- bioavailability ([12]; po, 10 mg/kg): 76.9%
- half-life ([12]; po, 10 mg/kg): 5.77 ± 2.17 h
- AUC(0-inf) ([12]; po, 30 mg/kg): 51.8 ± 62.3 µM·h
- AUC(0-t) ([12]; po, 30 mg/kg): 50 ± 58.8 µM·h
- Cmax ([12]; po, 30 mg/kg): 16.2 ± 16.5 µM
- Tmax ([12]; po, 30 mg/kg): 0.917 ± 0.585 h
- bioavailability ([12]; po, 30 mg/kg): 65.4%
- half-life ([12]; po, 30 mg/kg): 5.25 ± 1.03 h
- AUC(0-inf) ([12]; po, 30 mg/kg/day): 37.9 ± 31.9 µM·h
- AUC(0-t) ([12]; po, 30 mg/kg/day): 23.7 ± 16.1 µM·h
- Cmax at 7 days ([12]; po, 30 mg/kg/day): 6.97 ± 5.26 µM
- Tmax at 7 days ([12]; po, 30 mg/kg/day): 1.08 ± 0.736 h
- half-life ([12]; po, 30 mg/kg/day): 12.3 ± 12.6 h
- AUC(0-inf) ([12]; po, 100 mg/kg): 230 ± 51.5 µM·h
- AUC(0-t) ([12]; po, 100 mg/kg): 199 ± 90.5 µM·h
- Cmax ([12]; po, 100 mg/kg): 47.8 ± 20.8 µM
- Tmax ([12]; po, 100 mg/kg): 2.33 ± 0.816 h
- bioavailability ([12]; po, 100 mg/kg): 78%
- half-life ([12]; po, 100 mg/kg): 2.99 ± 0.7 h
- pathologic changes in heart, liver, spleen, lung and kidney (H&E) [13]: No significant pathologic changes
- IC50 (VEGFR3): 0.0085 µM
- IC50 (FGFR2): 0.0155 µM
- IC50 (CAMK2α): > 10 µM
- IC50 (CDK2): > 10 µM
- IC50 (CHK1): > 10 µM
- IC50 (CK1α): > 10 µM
- IC50 (DYRK3): > 10 µM
- IC50 (EphA2): > 3.33 µM
- IC50 (GSK3β): > 10 µM
- IC50 (MAP4K4): 0.079 µM
- IC50 (JAK2): > 10 µM
- IC50 (JNK1): > 10 µM
- IC50 (MAPKAPK2): > 10 µM
- IC50 (MST4): > 10 µM
- IC50 (p38α): > 3.33 µM
- IC50 (PDK1): > 10 µM
- IC50 (PKA): > 10 µM
- IC50 (SRC): 2.65 µM
- IC50 (TAOK2): > 10 µM
Structure (SMILES): COc1cc2nccc(Oc3ccc(NC(=S)NC4CC4)c(Cl)c3F)c2cc1C(N)=O [WXFL-152, 4-(3-Chloro-4-(3-cyclopropylthioureido)-2-fluorophenoxy)-7-methoxyquinoline-6-carboxamide]
- IC50 (HUVECs [1]): 0.071 µM
- IC50 (HBVPs): 1.94 µM
- tube formation of HUVECs (HUVECs [2]): significantly suppressed
- invasion of HUVECs (HUVECs [3]): significantly inhibited
- phosphorylation of VEGFR2 and ERK [4]: significantly suppressed
- phosphorylation of PDGFRβ and ERK [5]: significantly blocked
- phosphorylation of FGFR1‒4 and ERK [6]: significantly inhibited
- tumor angiogenesis and tumor size in zebrafish xenograft [7]: few tumors exhibiting angiogenesis and small tumors
- T/C ([8]; 50 mg/kg p.o. QD): 29%
- TGI ([8]; 50 mg/kg p.o. QD): 78%
- Tumor volume at Day 21 ([8]; 50 mg/kg p.o. QD): 430 ± 42 mm^3
- area of CD31 (tumor micro-vessel density, IHC) ([8]; 50 mg/kg): 2.20 ± 0.29
- T/C ([8]; 100 mg/kg p.o. QD): 27%
- TGI ([8]; 100 mg/kg p.o. QD): 80%
- Tumor volume at Day 21 ([8]; 100 mg/kg p.o. QD): 401 ± 38 mm^3
- area of CD31 (tumor micro-vessel density, IHC) ([8]; 100 mg/kg): 1.27 ± 0.48
- T/C ([9]; 50 mg/kg p.o. QD): 58%
- TGI ([9]; 50 mg/kg p.o. QD): 51%
- Tumor volume at Day 21 ([9]; 50 mg/kg p.o. QD): 704 ± 107 mm^3
- area of CD31 (tumor micro-vessel density, IHC) ([9]; 50 mg/kg): 1.96 ± 0.05
- T/C ([9]; 100 mg/kg p.o. QD): 36%
- TGI ([9]; 100 mg/kg p.o. QD): 72%
- Tumor volume at Day 21 ([9]; 100 mg/kg p.o. QD): 478 ± 85 mm^3
- area of CD31 (tumor micro-vessel density, IHC) ([9]; 100 mg/kg): 1.83 ± 0.26
- area of CD31 (tumor micro-vessel density, IHC) ([10]; liver PDX model, 200 mg/kg, mean ± SEM, n = 3, control 0.30 ± 0.10): 0.19 ± 0.06
- T/C [10, 15]: 35%
- TGI [10, 15]: 76%
- Tumor volume at Day 21 ([10]; liver cancer PDX model, 200 mg/kg oral QD, mean ± SEM): 334 ± 69 mm^3
- migration of HUVECs (wound healing) (HUVECs [14]): appreciably inhibited
